Assay results as given in PubChem BioAssay (NCI).
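Dose response: 5 concentrations. Exposure: 48 h. Format: 96-well plates. Endpoint: linear interpolation; highest concentration if not reached. GI50 is the concentration that inhibits growth by half. TGI: total growth inhibition.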

What follows are molecules tested on SK-MEL-2 melanoma (assay: NCI tumour cell line growth inhibition, 48 h).

Q: `BrC1=C(Br)C2(SCCS2)[C@H]2C[C@@H]1c1ccccc12` was tested. Which TGI did it give?
A: > 100 µM

Q: `C/C=C(\C)C(=O)O[C@H]1C=CC(=O)O[C@H]1CCC(=O)[C@H](C)O` was tested. Which GI50 did it give?
A: 19.1 µM

Q: And the TGI?
A: 47.3 µM

Q: How did the GI50 turn out when `N#Cc1c(NC(=O)NCc2ccccc2)sc2c1CCCCC2` was run?
A: 2.27 µM

Q: And the TGI?
A: > 100 µM

Q: With `CCCCCCNc1n[nH]c(=O)c2c1nnn2Cc1ccccc1` as the molecule, how does the TGI read?
A: > 100 µM

These molecules were tested on SK-MEL-28 melanoma (assay: NCI tumour cell line growth inhibition, 48 h).

Q: How did the TGI turn out when `CC1(C)CC(=O)C(C=NC(=S)c2ccccc2)=C(O)C1` was run?
A: > 100 µM

Q: Which TGI does the source give for `BrC1=C(Br)C2(SCCS2)[C@H]2C[C@@H]1c1ccccc12` here?
A: > 100 µM

Q: With `C/C=C(\C)C(=O)O[C@H]1C=CC(=O)O[C@H]1CCC(=O)[C@H](C)O` as the molecule, how does the GI50 read?
A: 9.9 µM

Q: What about the TGI of the same molecule?
A: 24.6 µM

Q: Which results are given for `N#Cc1c(NC(=O)NCc2ccccc2)sc2c1CCCCC2`?
A: GI50: 2.77 µM; TGI: > 100 µM

Q: With `CCCCCCNc1n[nH]c(=O)c2c1nnn2Cc1ccccc1` as the molecule, how does the TGI read?
A: > 100 µM

These molecules were tested on SK-MEL-5 melanoma (assay: NCI tumour cell line growth inhibition, 48 h).

Q: For `CC1(C)CC(=O)C(C=NC(=S)c2ccccc2)=C(O)C1`, which TGI is on record?
A: > 100 µM

Q: With `BrC1=C(Br)C2(SCCS2)[C@H]2C[C@@H]1c1ccccc12` as the molecule, how does the TGI read?
A: > 41.6 µM

Q: Which GI50 does the source give for `C/C=C(\C)C(=O)O[C@H]1C=CC(=O)O[C@H]1CCC(=O)[C@H](C)O` here?
A: 13.8 µM

Q: And the TGI?
A: 27.1 µM

Q: What does the source list for `N#Cc1c(NC(=O)NCc2ccccc2)sc2c1CCCCC2`?
A: GI50: 0.478 µM; TGI: 3.6 µM

Q: With `CCCCCCNc1n[nH]c(=O)c2c1nnn2Cc1ccccc1` as the molecule, how does the TGI read?
A: > 100 µM

What follows are molecules tested on SK-OV-3 ovarian (assay: NCI tumour cell line growth inhibition, 48 h).

Q: How did the TGI turn out when `CC1(C)CC(=O)C(C=NC(=S)c2ccccc2)=C(O)C1` was run?
A: > 100 µM

Q: How did the TGI turn out when `BrC1=C(Br)C2(SCCS2)[C@H]2C[C@@H]1c1ccccc12` was run?
A: > 100 µM

Q: What does the source list for `C/C=C(\C)C(=O)O[C@H]1C=CC(=O)O[C@H]1CCC(=O)[C@H](C)O`?
A: GI50: 36.5 µM; TGI: > 100 µM

Q: For `N#Cc1c(NC(=O)NCc2ccccc2)sc2c1CCCCC2`, which GI50 is on record?
A: 0.799 µM

Q: What about the TGI of the same molecule?
A: > 100 µM

These molecules were tested on SN12C renal (assay: NCI tumour cell line growth inhibition, 48 h).

Q: How did the TGI turn out when `CC1(C)CC(=O)C(C=NC(=S)c2ccccc2)=C(O)C1` was run?
A: > 100 µM

Q: For `BrC1=C(Br)C2(SCCS2)[C@H]2C[C@@H]1c1ccccc12`, which TGI is on record?
A: > 100 µM

Q: For `C/C=C(\C)C(=O)O[C@H]1C=CC(=O)O[C@H]1CCC(=O)[C@H](C)O`, which GI50 is on record?
A: 18.5 µM

Q: What about the TGI of the same molecule?
A: 46.9 µM

Q: How did the GI50 turn out when `N#Cc1c(NC(=O)NCc2ccccc2)sc2c1CCCCC2` was run?
A: 0.682 µM

Q: And the TGI?
A: > 100 µM

Q: `CCCCCCNc1n[nH]c(=O)c2c1nnn2Cc1ccccc1` was tested. Which TGI did it give?
A: > 100 µM

Each molecule was assayed on SNB-19 CNS (assay: NCI tumour cell line growth inhibition, 48 h).

Q: `CC1(C)CC(=O)C(C=NC(=S)c2ccccc2)=C(O)C1` was tested. Which TGI did it give?
A: > 100 µM

Q: How did the TGI turn out when `BrC1=C(Br)C2(SCCS2)[C@H]2C[C@@H]1c1ccccc12` was run?
A: > 100 µM

Q: Which GI50 does the source give for `C/C=C(\C)C(=O)O[C@H]1C=CC(=O)O[C@H]1CCC(=O)[C@H](C)O` here?
A: 25.7 µM

Q: And the TGI?
A: 83.5 µM

Q: For `N#Cc1c(NC(=O)NCc2ccccc2)sc2c1CCCCC2`, which GI50 is on record?
A: 0.588 µM

Q: And the TGI?
A: > 100 µM

Q: Which TGI does the source give for `CCCCCCNc1n[nH]c(=O)c2c1nnn2Cc1ccccc1` here?
A: > 100 µM

The molecules below were run on SNB-75 CNS (assay: NCI tumour cell line growth inhibition, 48 h).

Q: With `CC1(C)CC(=O)C(C=NC(=S)c2ccccc2)=C(O)C1` as the molecule, how does the TGI read?
A: > 100 µM

Q: For `BrC1=C(Br)C2(SCCS2)[C@H]2C[C@@H]1c1ccccc12`, which TGI is on record?
A: > 85.9 µM

Q: What does the source list for `C/C=C(\C)C(=O)O[C@H]1C=CC(=O)O[C@H]1CCC(=O)[C@H](C)O`?
A: GI50: 20.4 µM; TGI: 41.4 µM

Q: With `N#Cc1c(NC(=O)NCc2ccccc2)sc2c1CCCCC2` as the molecule, how does the GI50 read?
A: 0.261 µM

Q: What about the TGI of the same molecule?
A: 4.91 µM

What follows are molecules tested on SR leukemia (assay: NCI tumour cell line growth inhibition, 48 h).

Q: How did the TGI turn out when `BrC1=C(Br)C2(SCCS2)[C@H]2C[C@@H]1c1ccccc12` was run?
A: 75 µM

Q: Which results are given for `C/C=C(\C)C(=O)O[C@H]1C=CC(=O)O[C@H]1CCC(=O)[C@H](C)O`?
A: GI50: 2.22 µM; TGI: 13.2 µM

Q: For `N#Cc1c(NC(=O)NCc2ccccc2)sc2c1CCCCC2`, which GI50 is on record?
A: 0.346 µM

Q: What about the TGI of the same molecule?
A: > 100 µM

Q: `CCCCCCNc1n[nH]c(=O)c2c1nnn2Cc1ccccc1` was tested. Which TGI did it give?
A: > 100 µM

What follows are molecules tested on SW-620 colon (assay: NCI tumour cell line growth inhibition, 48 h).

Q: `CC1(C)CC(=O)C(C=NC(=S)c2ccccc2)=C(O)C1` was tested. Which TGI did it give?
A: > 100 µM

Q: How did the TGI turn out when `BrC1=C(Br)C2(SCCS2)[C@H]2C[C@@H]1c1ccccc12` was run?
A: > 100 µM

Q: Which results are given for `C/C=C(\C)C(=O)O[C@H]1C=CC(=O)O[C@H]1CCC(=O)[C@H](C)O`?
A: GI50: 4.9 µM; TGI: 16.2 µM

Q: How did the GI50 turn out when `N#Cc1c(NC(=O)NCc2ccccc2)sc2c1CCCCC2` was run?
A: 0.406 µM

Q: And the TGI?
A: > 100 µM

Each molecule was assayed on T-47D breast (assay: NCI tumour cell line growth inhibition, 48 h).

Q: For `BrC1=C(Br)C2(SCCS2)[C@H]2C[C@@H]1c1ccccc12`, which TGI is on record?
A: > 100 µM

Q: For `C/C=C(\C)C(=O)O[C@H]1C=CC(=O)O[C@H]1CCC(=O)[C@H](C)O`, which GI50 is on record?
A: 10.4 µM

Q: And the TGI?
A: 32.3 µM

Q: How did the GI50 turn out when `N#Cc1c(NC(=O)NCc2ccccc2)sc2c1CCCCC2` was run?
A: 0.343 µM

Q: What about the TGI of the same molecule?
A: > 100 µM

Each molecule was assayed on TK-10 renal (assay: NCI tumour cell line growth inhibition, 48 h).

Q: How did the TGI turn out when `CC1(C)CC(=O)C(C=NC(=S)c2ccccc2)=C(O)C1` was run?
A: > 100 µM

Q: How did the TGI turn out when `BrC1=C(Br)C2(SCCS2)[C@H]2C[C@@H]1c1ccccc12` was run?
A: > 100 µM

Q: `C/C=C(\C)C(=O)O[C@H]1C=CC(=O)O[C@H]1CCC(=O)[C@H](C)O` was tested. Which GI50 did it give?
A: 17.7 µM

Q: And the TGI?
A: 34 µM

Q: Which results are given for `N#Cc1c(NC(=O)NCc2ccccc2)sc2c1CCCCC2`?
A: GI50: 5.92 µM; TGI: > 100 µM

Q: Which TGI does the source give for `CCCCCCNc1n[nH]c(=O)c2c1nnn2Cc1ccccc1` here?
A: > 100 µM

The molecules below were run on U251 CNS (assay: NCI tumour cell line growth inhibition, 48 h).

Q: Which TGI does the source give for `CC1(C)CC(=O)C(C=NC(=S)c2ccccc2)=C(O)C1` here?
A: > 100 µM

Q: With `BrC1=C(Br)C2(SCCS2)[C@H]2C[C@@H]1c1ccccc12` as the molecule, how does the TGI read?
A: > 100 µM

Q: What does the source list for `C/C=C(\C)C(=O)O[C@H]1C=CC(=O)O[C@H]1CCC(=O)[C@H](C)O`?
A: GI50: 12.9 µM; TGI: 26.4 µM

Q: Which GI50 does the source give for `N#Cc1c(NC(=O)NCc2ccccc2)sc2c1CCCCC2` here?
A: 0.535 µM

Q: And the TGI?
A: > 71.2 µM

Q: How did the TGI turn out when `CCCCCCNc1n[nH]c(=O)c2c1nnn2Cc1ccccc1` was run?
A: > 100 µM

The molecules below were run on UACC-257 melanoma (assay: NCI tumour cell line growth inhibition, 48 h).

Q: How did the TGI turn out when `CC1(C)CC(=O)C(C=NC(=S)c2ccccc2)=C(O)C1` was run?
A: > 100 µM

Q: With `BrC1=C(Br)C2(SCCS2)[C@H]2C[C@@H]1c1ccccc12` as the molecule, how does the TGI read?
A: > 100 µM

Q: What does the source list for `C/C=C(\C)C(=O)O[C@H]1C=CC(=O)O[C@H]1CCC(=O)[C@H](C)O`?
A: GI50: 22.6 µM; TGI: > 57 µM

Q: How did the GI50 turn out when `N#Cc1c(NC(=O)NCc2ccccc2)sc2c1CCCCC2` was run?
A: 1.5 µM

Q: And the TGI?
A: > 100 µM

Q: `CCCCCCNc1n[nH]c(=O)c2c1nnn2Cc1ccccc1` was tested. Which TGI did it give?
A: > 100 µM

The molecules below were run on UACC-62 melanoma (assay: NCI tumour cell line growth inhibition, 48 h).

Q: Which TGI does the source give for `CC1(C)CC(=O)C(C=NC(=S)c2ccccc2)=C(O)C1` here?
A: > 100 µM

Q: How did the TGI turn out when `BrC1=C(Br)C2(SCCS2)[C@H]2C[C@@H]1c1ccccc12` was run?
A: > 100 µM

Q: Which results are given for `C/C=C(\C)C(=O)O[C@H]1C=CC(=O)O[C@H]1CCC(=O)[C@H](C)O`?
A: GI50: 14.1 µM; TGI: 27.7 µM

Q: With `N#Cc1c(NC(=O)NCc2ccccc2)sc2c1CCCCC2` as the molecule, how does the GI50 read?
A: 0.533 µM

Q: What about the TGI of the same molecule?
A: > 40.2 µM

These molecules were tested on UO-31 renal (assay: NCI tumour cell line growth inhibition, 48 h).

Q: With `CC1(C)CC(=O)C(C=NC(=S)c2ccccc2)=C(O)C1` as the molecule, how does the TGI read?
A: > 100 µM

Q: Which TGI does the source give for `BrC1=C(Br)C2(SCCS2)[C@H]2C[C@@H]1c1ccccc12` here?
A: > 62.3 µM

Q: Which GI50 does the source give for `C/C=C(\C)C(=O)O[C@H]1C=CC(=O)O[C@H]1CCC(=O)[C@H](C)O` here?
A: 15.9 µM

Q: And the TGI?
A: 31.2 µM

Q: Which results are given for `N#Cc1c(NC(=O)NCc2ccccc2)sc2c1CCCCC2`?
A: GI50: 0.626 µM; TGI: > 100 µM

Q: `CCCCCCNc1n[nH]c(=O)c2c1nnn2Cc1ccccc1` was tested. Which TGI did it give?
A: > 100 µM
